Assay results taken from PMC5399447, “Neuroprotective pentapeptide CN-105 is associated with reduced sterile inflammation and improved functional outcomes in a traumatic brain injury murine model” (Scientific Reports, 2017).

System: 84 genes related to inflammatory and autoimmune processes
Assay: Mouse Inflammatory Response and Autoimmunity PCR Array, whole brain
Type: in vivo
Parameters: key to Il9 ΔCt value, S-CN-105 / Il8ra ΔCt value, S-CN-105 / Il1rn ΔCt value, S-CN-105 / Il1f10 ΔCt value, S-CN-105 / Crp ΔCt value, S-CN-105: *: Indicate mRNA expression was below the level of detection
Details: brain 24 h
Description: Frozen, pulverized whole brain tissue was processed for RNA extraction from a separate cohort of treated and untreated injured animals on days 1 post-injury(CN-105, n = 4; vehicle, n = 3; Control(sham-operated), n = 3). Total RNA was extracted from frozen, pulverized whole brain tissue using RNeasy Lipid Tissue Mini Kit(Qiagen, Valencia, CA). RNA quantity and quality was assessed with the NanoDrop ND-1000 spectrophotometer(NanoDrop Technologies, Inc., Wilmington, DE) and by agarose gel electrophoresis. Only samples with a 260/280 ratio between 1.9–2.1, and a 260/230 ratio greater than 2.0, were further processed. First strand complementary DNA(cDNA) was generated from 2 μg total RNA using the RT[2] First strand kit(SABiosciences, Frederick, MD.)
Gene expression was measured using the Mouse Inflammatory Response and Autoimmunity PCR Array(SABiosciences, Frederick, MD), which profiles the expression of 84 genes related to inflammatory and autoimmune processes. RT-PCR was performed according to manufacturer’s instructions Quality of the cDNA and PCR efficiency was verified by housekeeping genes and RT-PCR controls included in the PCR Array.
Raw RT-PCR data were analyzed using the Web-Based PCR Array Data Analysis software(SABiosciences). ΔCt values and ΔΔCt - based fold-change were calculated from raw threshold cycle data, using beta-actin and glyceraldehyde 3-phosphate dehydrogenase(GAPDH) as internal standards for normalization. Fold changes were then normalized against sham-operated controls.

Ac-VSRRR-amide [CN-105]
Fos fold change TBI-CN-105/S-v (TBI CN-105 vs sham vehicle): 1.1 | Hdac4 fold change TBI-CN-105/S-v (TBI CN-105 vs sham vehicle): 13.9 | Ifng fold change TBI-CN-105/S-v (TBI CN-105 vs sham vehicle): 59.7 | Il1a fold change TBI-CN-105/S-v (TBI CN-105 vs sham vehicle): 37.7 | Il1b fold change TBI-CN-105/S-v (TBI CN-105 vs sham vehicle): 416.6 | Il1f10 fold change TBI-CN-105/S-v (TBI CN-105 vs sham vehicle): 352.3 | Il1r1 fold change TBI-CN-105/S-v (TBI CN-105 vs sham vehicle): −6.2 | Il1rap fold change TBI-CN-105/S-v (TBI CN-105 vs sham vehicle): −37.5 | Il1rn fold change TBI-CN-105/S-v (TBI CN-105 vs sham vehicle): 74.2 | Il6 fold change TBI-CN-105/S-v (TBI CN-105 vs sham vehicle): 13.2 | Il6ra fold change TBI-CN-105/S-v (TBI CN-105 vs sham vehicle): 47.9 | Il7 fold change TBI-CN-105/S-v (TBI CN-105 vs sham vehicle): 5569.8 | Il8ra fold change TBI-CN-105/S-v (TBI CN-105 vs sham vehicle): 196.8 | Il8rb fold change TBI-CN-105/S-v (TBI CN-105 vs sham vehicle): 658.4 | Il9 fold change TBI-CN-105/S-v (TBI CN-105 vs sham vehicle): 1155.5 | Il10 fold change TBI-CN-105/S-v (TBI CN-105 vs sham vehicle): 82.2 | Il10rb fold change TBI-CN-105/S-v (TBI CN-105 vs sham vehicle): 1.5 | Il18 fold change TBI-CN-105/S-v (TBI CN-105 vs sham vehicle): −9.5 | Il18rap fold change TBI-CN-105/S-v (TBI CN-105 vs sham vehicle): 58.6 | Il22 fold change TBI-CN-105/S-v (TBI CN-105 vs sham vehicle): 77.8 | Il22ra2 fold change TBI-CN-105/S-v (TBI CN-105 vs sham vehicle): 3448.3 | Il23a fold change TBI-CN-105/S-v (TBI CN-105 vs sham vehicle): 838.4 | Il23r fold change TBI-CN-105/S-v (TBI CN-105 vs sham vehicle): 7.2 | Itgb2 fold change TBI-CN-105/S-v (TBI CN-105 vs sham vehicle): 9.6 | Lta fold change TBI-CN-105/S-v (TBI CN-105 vs sham vehicle): 917.0 | Ltb fold change TBI-CN-105/S-v (TBI CN-105 vs sham vehicle): 75.7 | Ly96 fold change TBI-CN-105/S-v (TBI CN-105 vs sham vehicle): 19.9 | Myd88 fold change TBI-CN-105/S-v (TBI CN-105 vs sham vehicle): 8.5 | Nfatc3 fold change TBI-CN-105/S-v (TBI CN-105 vs sham vehicle): 364.7 | Nfkb1 fold change TBI-CN-105/S-v (TBI CN-105 vs sham vehicle): −3.1 | Nos2 fold change TBI-CN-105/S-v (TBI CN-105 vs sham vehicle): 1779.4 | Nr3c1 fold change TBI-CN-105/S-v (TBI CN-105 vs sham vehicle): −17.8 | Ripk2 fold change TBI-CN-105/S-v (TBI CN-105 vs sham vehicle): 30.1 | Tirap fold change TBI-CN-105/S-v (TBI CN-105 vs sham vehicle): 14.0 | Tlr1 fold change TBI-CN-105/S-v (TBI CN-105 vs sham vehicle): 15.4 | Tlr2 fold change TBI-CN-105/S-v (TBI CN-105 vs sham vehicle): 10.0 | Tlr3 fold change TBI-CN-105/S-v (TBI CN-105 vs sham vehicle): 3.9 | Tlr4 fold change TBI-CN-105/S-v (TBI CN-105 vs sham vehicle): 6.5 | Tlr5 fold change TBI-CN-105/S-v (TBI CN-105 vs sham vehicle): 2.5 | Tlr6 fold change TBI-CN-105/S-v (TBI CN-105 vs sham vehicle): 14.9 | Tlr7 fold change TBI-CN-105/S-v (TBI CN-105 vs sham vehicle): 546.2 | Tnf fold change TBI-CN-105/S-v (TBI CN-105 vs sham vehicle): 1367.7 | Tnfsf14 fold change TBI-CN-105/S-v (TBI CN-105 vs sham vehicle): 365.9 | Tollip fold change TBI-CN-105/S-v (TBI CN-105 vs sham vehicle): −3.2 | Bcl6 ΔCt value, S-CN-105 (sham + CN-105 0.05 mg/kg iv): 6.6E − 02 | C3ar1 ΔCt value, S-CN-105 (sham + CN-105 0.05 mg/kg iv): 4.1E − 03 | C3 ΔCt value, S-CN-105 (sham + CN-105 0.05 mg/kg iv): 7.0E − 04 | C4b ΔCt value, S-CN-105 (sham + CN-105 0.05 mg/kg iv): 7.0E − 03 | Ccl1 ΔCt value, S-CN-105 (sham + CN-105 0.05 mg/kg iv): 2.3E − 05 | Ccl2 ΔCt value, S-CN-105 (sham + CN-105 0.05 mg/kg iv): 8.3E − 04 | Ccl3 ΔCt value, S-CN-105 (sham + CN-105 0.05 mg/kg iv): 8.0E − 04 | Ccl4 ΔCt value, S-CN-105 (sham + CN-105 0.05 mg/kg iv): 3.8E − 04 | Ccl5 ΔCt value, S-CN-105 (sham + CN-105 0.05 mg/kg iv): 1.1E − 03 | Ccl7 ΔCt value, S-CN-105 (sham + CN-105 0.05 mg/kg iv): 1.6E − 03 | Ccl8 ΔCt value, S-CN-105 (sham + CN-105 0.05 mg/kg iv): 2.1E − 03 | Ccl11 ΔCt value, S-CN-105 (sham + CN-105 0.05 mg/kg iv): 2.5E − 04 | Ccl12 ΔCt value, S-CN-105 (sham + CN-105 0.05 mg/kg iv): 6.5E − 03 | Ccl17 ΔCt value, S-CN-105 (sham + CN-105 0.05 mg/kg iv): 4.2E − 03 | Ccl19 ΔCt value, S-CN-105 (sham + CN-105 0.05 mg/kg iv): 2.9E − 02 | Ccl20 ΔCt value, S-CN-105 (sham + CN-105 0.05 mg/kg iv): 1.1E − 04 | Ccl22 ΔCt value, S-CN-105 (sham + CN-105 0.05 mg/kg iv): 3.8E − 04 | Ccl24 ΔCt value, S-CN-105 (sham + CN-105 0.05 mg/kg iv): 9.7E − 05 | Ccl25 ΔCt value, S-CN-105 (sham + CN-105 0.05 mg/kg iv): 1.4E − 02 | Ccr1 ΔCt value, S-CN-105 (sham + CN-105 0.05 mg/kg iv): 7.1E − 04 | Ccr2 ΔCt value, S-CN-105 (sham + CN-105 0.05 mg/kg iv): 5.5E − 04 | Ccr3 ΔCt value, S-CN-105 (sham + CN-105 0.05 mg/kg iv): 2.1E − 03 | Ccr4 ΔCt value, S-CN-105 (sham + CN-105 0.05 mg/kg iv): 6.0E − 06 | Ccr7 ΔCt value, S-CN-105 (sham + CN-105 0.05 mg/kg iv): 2.1E − 04 | Cd40lg ΔCt value, S-CN-105 (sham + CN-105 0.05 mg/kg iv): 6.9E − 05 | Cd40 ΔCt value, S-CN-105 (sham + CN-105 0.05 mg/kg iv): 8.3E − 04 | Cebpb ΔCt value, S-CN-105 (sham + CN-105 0.05 mg/kg iv): 1.1E − 01 | Crp ΔCt value, S-CN-105 (sham + CN-105 0.05 mg/kg iv): * | Csf1 ΔCt value, S-CN-105 (sham + CN-105 0.05 mg/kg iv): 1.9E − 02 | Cxcl1 ΔCt value, S-CN-105 (sham + CN-105 0.05 mg/kg iv): 1.6E − 04 | Cxcl2 ΔCt value, S-CN-105 (sham + CN-105 0.05 mg/kg iv): 2.8E − 04 | Cxcl3 ΔCt value, S-CN-105 (sham + CN-105 0.05 mg/kg iv): 2.3E − 05 | Cxcl5 ΔCt value, S-CN-105 (sham + CN-105 0.05 mg/kg iv): 2.5E − 03 | Cxcl9 ΔCt value, S-CN-105 (sham + CN-105 0.05 mg/kg iv): 1.0E − 04 | Cxcl10 ΔCt value, S-CN-105 (sham + CN-105 0.05 mg/kg iv): 1.9E − 03 | Cxcl11 ΔCt value, S-CN-105 (sham + CN-105 0.05 mg/kg iv): 9.0E − 05 | Cxcr4 ΔCt value, S-CN-105 (sham + CN-105 0.05 mg/kg iv): 6.6E − 03 | Fasl ΔCt value, S-CN-105 (sham + CN-105 0.05 mg/kg iv): 1.9E − 04 | Flt3l ΔCt value, S-CN-105 (sham + CN-105 0.05 mg/kg iv): 3.0E − 03 | Fos ΔCt value, S-CN-105 (sham + CN-105 0.05 mg/kg iv): 2.3E − 01 | Hdac4 ΔCt value, S-CN-105 (sham + CN-105 0.05 mg/kg iv): 9.1E − 02 | Ifng ΔCt value, S-CN-105 (sham + CN-105 0.05 mg/kg iv): 5.8E − 05 | Il1a ΔCt value, S-CN-105 (sham + CN-105 0.05 mg/kg iv): 1.9E − 03 | Il1b ΔCt value, S-CN-105 (sham + CN-105 0.05 mg/kg iv): 2.0E − 03 | Il1f10 ΔCt value, S-CN-105 (sham + CN-105 0.05 mg/kg iv): * | Il1r1 ΔCt value, S-CN-105 (sham + CN-105 0.05 mg/kg iv): 1.2E − 02 | Il1rap ΔCt value, S-CN-105 (sham + CN-105 0.05 mg/kg iv): 4.4E − 02 | Il1rn ΔCt value, S-CN-105 (sham + CN-105 0.05 mg/kg iv): * | Il6ra ΔCt value, S-CN-105 (sham + CN-105 0.05 mg/kg iv): 4.9E − 03 | Il6 ΔCt value, S-CN-105 (sham + CN-105 0.05 mg/kg iv): 1.1E − 04 | Il7 ΔCt value, S-CN-105 (sham + CN-105 0.05 mg/kg iv): 3.2E − 04 | Il8ra ΔCt value, S-CN-105 (sham + CN-105 0.05 mg/kg iv): * | Il8rb ΔCt value, S-CN-105 (sham + CN-105 0.05 mg/kg iv): 6.1E − 05 | Il9 ΔCt value, S-CN-105 (sham + CN-105 0.05 mg/kg iv): * | Il10rb ΔCt value, S-CN-105 (sham + CN-105 0.05 mg/kg iv): 3.0E − 02 | Il10 ΔCt value, S-CN-105 (sham + CN-105 0.05 mg/kg iv): 1.1E − 04 | Il18rap ΔCt value, S-CN-105 (sham + CN-105 0.05 mg/kg iv): 4.5E − 05 | Il18 ΔCt value, S-CN-105 (sham + CN-105 0.05 mg/kg iv): 1.8E − 01
